Data taken from patent publication US9511052B2, “Mineralocorticoid receptor antagonists” (Merck Sharp & Dohme Corp., priority 2012, dated 2016).
Each block holds one compound with its values, some of them ahead of it.

How the values were obtained:
[1] = Hepatocyte stability, human; format: in vitro ADME; conditions: for half-life: human, hepatocytes, read-out: Hepatocyte Stability (t1/2)
[2] = Hepatocyte stability, dog; format: in vitro ADME; conditions: hepatocytes, read-out: Hepatocyte Stability (t1/2)
PK profile in rats = format: in vivo, rat; conditions: for clearance / half-life / bioavailability: rat, in vivo; for bioavailability: oral
[3] = Liver microsome stability, rhesus monkey; format: in vitro ADME; conditions: liver microsomes, read-out: Liver Microsome Stability (t1/2)
[4] = Liver microsome stability, rat; format: in vitro ADME; conditions: liver microsomes, read-out: Liver Microsome Stability (t1/2)
[5] = biological target: T1, full-length human Mineralocorticoid Receptor (MR) (Homo sapiens, UniProt P08235); test: human MR NH Pro assay (PathHunter Protein:Protein interaction assay), MR antagonism; format: cell-based; conditions: IP = inflection point of the dose-response curve; CHO-K1 cells overexpressing human MR, aldosterone about 0.3 nM to about 1 nM, 6 hours at 37° C.
T1 construct: host or cells: PathHunter CHO-K1 MR cells
T1 sequence (P08235 1-984): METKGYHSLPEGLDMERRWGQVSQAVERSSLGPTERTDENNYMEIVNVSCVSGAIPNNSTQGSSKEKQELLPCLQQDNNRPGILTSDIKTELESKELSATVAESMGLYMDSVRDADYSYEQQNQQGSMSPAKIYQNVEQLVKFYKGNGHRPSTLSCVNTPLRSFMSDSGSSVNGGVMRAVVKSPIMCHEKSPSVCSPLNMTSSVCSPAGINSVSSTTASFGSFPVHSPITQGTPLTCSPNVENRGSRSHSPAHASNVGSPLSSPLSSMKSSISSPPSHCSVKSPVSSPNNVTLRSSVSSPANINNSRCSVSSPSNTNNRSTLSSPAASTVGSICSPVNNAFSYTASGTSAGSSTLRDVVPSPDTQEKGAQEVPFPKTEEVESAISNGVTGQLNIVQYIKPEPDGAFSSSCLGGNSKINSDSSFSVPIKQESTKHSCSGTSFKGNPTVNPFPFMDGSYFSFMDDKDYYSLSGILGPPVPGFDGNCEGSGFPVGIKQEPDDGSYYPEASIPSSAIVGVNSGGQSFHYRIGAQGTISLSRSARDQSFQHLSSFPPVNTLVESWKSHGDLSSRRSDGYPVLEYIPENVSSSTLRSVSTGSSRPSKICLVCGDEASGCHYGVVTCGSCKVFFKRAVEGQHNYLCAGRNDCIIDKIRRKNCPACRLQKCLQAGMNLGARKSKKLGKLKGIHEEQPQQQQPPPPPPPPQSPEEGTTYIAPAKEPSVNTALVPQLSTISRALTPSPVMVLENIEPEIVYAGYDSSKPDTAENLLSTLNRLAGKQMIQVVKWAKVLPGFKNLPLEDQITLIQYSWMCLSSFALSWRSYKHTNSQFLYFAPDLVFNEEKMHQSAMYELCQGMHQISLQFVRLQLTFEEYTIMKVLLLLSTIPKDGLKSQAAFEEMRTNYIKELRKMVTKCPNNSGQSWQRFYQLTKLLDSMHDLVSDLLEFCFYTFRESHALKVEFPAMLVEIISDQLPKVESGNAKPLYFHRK
From the text: The activity of the compounds of the present invention regarding mineralocorticoid receptor antagonism can be evaluated using the following assay.
Assessment of MR Potency in HMR NH Pro Assay
The human MR NH Pro assay is a commercially available PathHunter™ Protein:Protein interaction assay (DiscoveRx; http://www.discoverx.com/nhrs/prod-nhrs.php) that measures the ability of compounds to antagonize full-length human Mineralocorticoid Receptor (MR) binding to a coactivator peptide.
Stock solution was prepared at 10 μM in DMSO and stored at −20° C. for assay, dilute in assay media to 1.8 or 6 nM (6× of final concentration=about 0.3 nM to about 1.0 nM)
5. Cell line: PathHunter CHO-K1 MR cells Cat #93-0456C2, Lot No: 09B0913, from operation liquid nitrogen stock.
6. Control Antagonist: Spironolactone: Sigma #S-3378 and Eplerenone Sigma #107724-20-9 (10 mM stock concentration also prepared in DMSO and stored at −20° C.).
1. Cells are grown in F12+FBS+Hygromycin+pen/strep+Genetin
2. Cells are collected with 0.05% trypsin and the cell suspension is spun and resuspended in a volume of F12+1.5% CD-FBS and counted.
3. The cells concentration was adjusted to 4×10^5 cells/mL.
4. Cells were (25 μL/well) added to the wells of a 384 well plate.
5. The plate was then incubated at 37° C. over night in a humidified incubator with 5% CO2.
6. Test compounds were titrated starting at 4.4 mM, 10-point titration in 1:3 dilution.
Protocol for 384 well plate format: 6 hr treatment:
1. 10K exponentially growing cells/well (25 μL) were resuspended in assay media and plated into each well using the Multidrop (Thermo Electron) (use white wall, clear bottom assay plates (Costar #3570) and incubated overnight at 37° C., 5% CO2.
2. 0.25 μL 120× test compound (final DMSO concentration should be <1%) was added to each well n=2, 10 point titrations starting at 36.7 μM final concentration.
4. 5 μL of assay media was added to all wells in column 23 and 24.
5. Cells were then incubated for 6 hrs at 37° C., 5% CO2.
6. 15 μL 3× DiscoveRx detection reagent was then added to each well.
7. Plates were incubated for 1 hour at room temperature in the dark.
8. Plates were read on Envision (PerkinElmer) luminesence plate reader and analyzed using ADA.

[6] = Metabolic stability in liver microsome and hepatocytes of multiple animal species (overall statement); format: in vitro ADME
[7] = Hepatocyte stability, rat; format: in vitro ADME; conditions: hepatocytes, read-out: Hepatocyte Stability (t1/2)
[8] = Liver microsome stability, dog; format: in vitro ADME; conditions: liver microsomes, read-out: Liver Microsome Stability (t1/2)
[9] = Hepatocyte stability, rhesus monkey; format: in vitro ADME; conditions: hepatocytes, read-out: Hepatocyte Stability (t1/2)
[10] = Liver microsome stability, human; format: in vitro ADME; conditions: for Liver Microsome Stability (t1/2): Human; for half-life: human, liver microsomes, read-out: Liver Microsome Stability (t1/2)

Compound: CCC(c1ccc(Br)cc1)(C(C)O)n1ncc2c(NS(C)(=O)=O)cccc21 (single isomer, unassigned) [Compound 2, N-(1-(3-(4-bromophenyl)-2-hydroxypentan-3-yl)-1H-indazol-4-yl) methanesulfonamide]
Hepatocyte Stability (t1/2) ([1]; Human): 1.15 h | half-life [2]: 0.75 h | PK profile in rats (in words) (PK profile in rats): good PK profile | AUCN po (PK profile in rats): 1.0 µM·kg·h/mg | clearance (PK profile in rats): 18 mL/min/kg | half-life (PK profile in rats): 3.6 h | bioavailability (PK profile in rats): 49% | half-life [3]: 0.383 h | half-life [4]: 0.883 h | IC50 [5]: 7 nM | metabolic stability in liver microsome and hepatocytes of multiple animal species (in words) [6]: good metabolic stability | half-life [7]: > 1.5 h | half-life [8]: 1.12 h | half-life [9]: 0.933 h | Liver Microsome Stability (t1/2) [10]: 0.8 h

Compound: CCC(O)C(CC)(c1ccc(C(F)(F)F)cc1)n1ncc2c(NS(C)(=O)=O)cccc21 (single isomer, unassigned) [Compound 9, N-(1-(4-hydroxy-3-(4-(trifluoromethyl)phenyl)hexan-3-yl)-1H-indazol-4-yl)methanesulfonamide]
half-life [1]: > 1.5 h | half-life [2]: 0.8 h | Cl (PK profile in rats): 24 mL/min/kg | PK profile in rats (in words) (PK profile in rats): good PK profile | t1/2 (PK profile in rats): 5.3 h | AUCN po (PK profile in rats): 1.3 µM·kg·h/mg | bioavailability (PK profile in rats): 76% | half-life [3]: 1.02 h | half-life [4]: 1.02 h | IC50 [5]: 4 nM | metabolic stability in liver microsome and hepatocytes of multiple animal species (in words) [6]: good metabolic stability | half-life [7]: > 1.5 h | half-life [8]: 1.08 h | half-life [9]: > 1.5 h | Liver Microsome Stability (t1/2) [10]: 1.2 h

Compound: CCC(c1ccc(C(F)(F)F)cc1)(C(C)O)n1ncc2c(NS(C)(=O)=O)cc(F)cc21 (single isomer, unassigned) [Compound 31, N-(6-fluoro-1-(2-hydroxy-3-(4-(trifluoromethyl)phenyl)pentan-3-yl)-1H-indazol-4-yl)methanesulfonamide]
half-life [1]: 1.5 h | half-life [2]: 1.22 h | PK profile in rats (in words) (PK profile in rats): good PK profile | AUCN po (PK profile in rats): 4.0 µM·kg·h/mg | clearance (PK profile in rats): 8.4 mL/min/kg | half-life (PK profile in rats): 5.2 h | bioavailability (PK profile in rats): 92% | half-life [3]: 1.12 h | half-life [4]: 3.9 h | IC50 [5]: 51 nM | metabolic stability in liver microsome and hepatocytes of multiple animal species (in words) [6]: excellent metabolic stability | half-life [7]: > 1.5 h | half-life [8]: 2.13 h | half-life [9]: > 1.5 h | half-life [10]: 2.6 h

Compound: CC(O)C(CC(F)F)(c1ccc(C(F)(F)F)cc1)n1ncc2c(NS(C)(=O)=O)cccc21 (single isomer, unassigned) [Compound 35, N-(1-(1,1-difluoro-4-hydroxy-3-(4-(trifluoromethyl)phenyl)pentan-3-yl)-1H-indazol-4-yl)methanesulfonamide]
PK profile in rats (in words) (PK profile in rats): good PK profile | AUCN po (PK profile in rats): 2.7 µM·kg·h/mg | clearance (PK profile in rats): 14 mL/min/kg | half-life (PK profile in rats): 7 h | bioavailability (PK profile in rats): 98% | IC50 [5]: 50 nM | metabolic stability in liver microsome and hepatocytes of multiple animal species (in words) [6]: good metabolic stability

Compound: CC(O)C(CC(F)F)(c1ccc(C(F)(F)F)cc1)n1ncc2c(NS(C)(=O)=O)cccc21 (single isomer, unassigned) [Compound 37, N-(1-(1,1-difluoro-4-hydroxy-3-(4-(trifluoromethyl)phenyl)pentan-3-yl)-1H-indazol-4-yl)methanesulfonamide]
half-life [1]: > 1.5 h | half-life [2]: 1.32 h | half-life [3]: 2.05 h | half-life [4]: 2.03 h | IC50 [5]: 66 nM | half-life [7]: > 1.5 h | half-life [8]: 0.967 h | half-life [9]: > 1.5 h | half-life [10]: 1.43 h

Other lines, results leading:

half-life [1]: > 1.5 h | half-life [2]: > 1.5 h | PK profile in rats (in words) (PK profile in rats): good PK profile | AUCN po (PK profile in rats): 1.9 µM·kg·h/mg | clearance (PK profile in rats): 6.2 mL/min/kg | half-life (PK profile in rats): 4.2 h | bioavailability (PK profile in rats): 31% | half-life [3]: 1.53 h | half-life [4]: 1.62 h | IC50 [5]: 76 nM | metabolic stability in liver microsome and hepatocytes of multiple animal species (in words) [6]: good metabolic stability | half-life [7]: > 1.5 h | half-life [8]: 2.25 h | half-life [9]: > 1.5 h | half-life [10]: 2.3 h
Compound: CS(=O)(=O)Nc1cccc2c1cnn2C(CC(F)F)(C(N)=O)c1ccc(C(F)(F)F)cc1 (single isomer, unassigned) [Compound 46, 4,4-difluoro-2-(4-(methylsulfonamido)-1H-indazol-1-yl)-2-(4-(trifluoromethyl)phenyl)butanamide]

half-life [1]: > 1.5 h | half-life [2]: > 1.5 h | Cl (PK profile in rats): 3.8 mL/min/kg | PK profile in rats (in words) (PK profile in rats): good PK profile | t1/2 (PK profile in rats): 9.9 h | AUCN po (PK profile in rats): 8.9 µM·kg·h/mg | bioavailability (PK profile in rats): 77% | half-life [3]: 0.7 h | half-life [4]: 2.57 h | IC50 [5]: 11 nM | metabolic stability in liver microsome and hepatocytes of multiple animal species (in words) [6]: good metabolic stability | half-life [7]: > 1.5 h | half-life [8]: 2.7 h | half-life [9]: > 1.5 h | Liver Microsome Stability (t1/2) [10]: 1.03 h
Compound: CCC(c1ccc(C(F)(F)F)cc1)(C(O)C(F)F)n1ncc2c(NS(C)(=O)=O)cccc21 (single isomer, unassigned) [Compound 47, N-(1-(1,1-difluoro-2-hydroxy-3-(4-(trifluoromethyl)phenyl)pentan-3-yl)-1H-indazol-4-yl)methanesulfonamide]

IC50 [5]: 10 nM
Compound: CCC(O)C(CC(F)F)(c1ccc(C(F)(F)F)cc1)n1ncc2c(NS(=O)(=O)CC)cccc21 (single isomer, unassigned) [Compound 56, N-(1-(1,1-difluoro-4-hydroxy-3-(4-(trifluoromethyl)phenyl)hexan-3-yl)-1H-indazol-4-yl)ethanesulfonamide]

IC50 [5]: 43 nM
Compound: CCS(=O)(=O)Nc1cccc2c1cnn2C(CC(F)F)(c1ccc(C(F)(F)F)cc1)C(C)O (single isomer, unassigned) [Compound 57, N-(1-(1,1-difluoro-4-hydroxy-3-(4-(trifluoromethyl)phenyl)pentan-3-yl)-1H-indazol-4-yl)ethanesulfonamide]

IC50 [5]: 38 nM
Compound: CCS(=O)(=O)Nc1cccc2c1cnn2C(CC(F)F)(c1ccc(C(F)(F)F)cc1)C(C)O (single isomer, unassigned) [Compound 58, N-(1-(1,1-difluoro-4-hydroxy-3-(4-(trifluoromethyl)phenyl)pentan-3-yl)-1H-indazol-4-yl)ethanesulfonamide]
